The term inhibition denotes the change of the read-out against control, counted positive when it falls.

The target of the assay is T1, human vasopressin V1a receptor subtype (Homo sapiens, UniProt P37288).
T1 construct: host or cells: CHO cells (pZeoSV vector for the Thibonnier line)
The experiment in a line: Vasopressin binding in Chinese Hamster Ovary cell membranes expressing human vasopressin V1a subtype receptors. The note with it: 100 nM, CHO cell membranes, [3H]Manning ligand, values without parentheses. Put shortly:
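Membranes from CHO cells expressing human V1a receptor were incubated with [3H]Manning ligand (added as 20 μL of 8 nM) in pH 7.4 Tris buffer with MgCl2, BSA and protease inhibitors, 60 min at room temperature. Bound radioactivity was counted after filtration; values are percent inhibition at a stated concentration or IC50.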

T1 sequence (P37288 whole entry): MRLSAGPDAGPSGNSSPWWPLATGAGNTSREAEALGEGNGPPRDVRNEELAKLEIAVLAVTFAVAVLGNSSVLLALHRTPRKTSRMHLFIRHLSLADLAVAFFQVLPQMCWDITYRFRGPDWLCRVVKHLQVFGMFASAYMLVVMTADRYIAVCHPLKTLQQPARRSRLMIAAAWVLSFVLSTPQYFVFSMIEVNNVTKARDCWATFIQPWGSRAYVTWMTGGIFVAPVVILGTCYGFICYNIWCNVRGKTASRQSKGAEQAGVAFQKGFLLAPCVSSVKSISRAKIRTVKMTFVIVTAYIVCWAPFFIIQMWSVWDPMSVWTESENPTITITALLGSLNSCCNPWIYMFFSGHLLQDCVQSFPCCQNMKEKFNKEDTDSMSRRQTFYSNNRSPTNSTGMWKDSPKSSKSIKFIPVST

As for `COc1cccc(-c2ccc(C(=O)N3Cc4ccc(C(=O)N5CCN(CCN6CCOCC6)CC5)n4Cc4ccccc43)cc2C)c1` [Example 208, {10-[(3′-Methoxy-2-methyl[1,1′-biphenyl]-4-yl)carbonyl]-10,11-dihydro-5H-pyrrolo[2,1-c][1,4]benzodiazepin-3-yl}{4-[2-(4-morpholinyl)ethyl]-1-piperazinyl}methanone], the inhibition at 0.1 µM is 20%.
Then `Cc1ccccc1-c1ccc(C(=O)N2Cc3ccc(C(=O)N4CCN(CCN5CCOCC5)CC4)n3Cc3ccccc32)cc1` [Example 209, {10-[(2′-Methyl[1,1′-biphenyl]-4-yl)carbonyl]-10,11-dihydro-5H-pyrrolo[2,1-c][1,4]benzodiazepin-3-yl}{4-[2-(4-morpholinyl)ethyl]-1-piperazinyl}methanone], with 64%.
As to `COc1cc(C(=O)N2Cc3ccc(C(=O)N4CCN(CCN5CCOCC5)CC4)n3Cc3ccccc32)ccc1-c1ccccc1C` [Example 210, {10-[(2-Methoxy-2′-methyl[1,1′-biphenyl]-4-yl)carbonyl]-10,11-dihydro-5H-pyrrolo[2,1-c][1,4]benzodiazepin-3-yl}{4-[2-(4-morpholinyl)ethyl]-1-piperazinyl}methanone], the inhibition at 0.1 µM is 39%.
Turning to `COc1cccc(-c2ccc(C(=O)N3Cc4ccc(C(=O)N5CCN(CCN6CCOCC6)CC5)n4Cc4ccccc43)cc2OC)c1` [Example 211, {10-[(2,3′-Dimethoxy[1,1′-biphenyl]-4-yl)carbonyl]-10,11-dihydro-5H-pyrrolo[2,1-c][1,4]benzodiazepin-3-yl}{4-[2-(4-morpholinyl)ethyl]-1-piperazinyl}methanone], the inhibition at 0.1 µM stood at 45%.
For `COc1cc(C(=O)N2Cc3ccc(C(=O)N4CCN(CCN5CCOCC5)CC4)n3Cc3ccccc32)ccc1-c1cccc2ccccc12` [Example 213, {10-[3-Methoxy-4-(1-naphthyl)benzoyl]-10,11-dihydro-5H-pyrrolo[2,1-c][1,4]benzodiazepin-3-yl}{4-[2-(4-morpholinyl)ethyl]-1-piperazinyl}methanone], the inhibition at 0.1 µM was determined as 12%.
Next, `COc1ccccc1-c1ccc(C(=O)N2Cc3ccc(C(=O)N4CCN(CCN5CCOCC5)CC4)n3Cc3ccccc32)cc1OC` [Example 214, {10-[(2,2′-Dimethoxy[1,1′-biphenyl]-4-yl)carbonyl]-10,11-dihydro-5H-pyrrolo[2,1-c][1,4]benzodiazepin-3-yl}{4-[2-(4-morpholinyl)ethyl]-1-piperazinyl}methanone]: 8%; `O=C(c1ccc2n1Cc1ccccc1N(C(=O)c1ccc(-c3cccc4ccccc34)cc1Cl)C2)N1CCN(CCN2CCOCC2)CC1` [Example 215, {10-[2-Chloro-4-(1-naphthyl)benzoyl]-10,11-dihydro-5H-pyrrolo[2,1-c][1,4]benzodiazepin-3-yl}{4-[2-(4-morpholinyl)ethyl]-1-piperazinyl}methanone]: 5%; `Cc1cc(C(=O)N2Cc3ccc(C(=O)N4CCN(CCN5CCOCC5)CC4)n3Cc3ccccc32)ccc1-c1ccccc1C(F)(F)F` [Example 216, (10-{[2-Methyl-2′-(trifluoromethyl)[1,1′-biphenyl]-4-yl]carbonyl}-10,11-dihydro-5H -pyrrolo[2,1-c][1,4]benzodiazepin-3-yl){4-[2-(4-morpholinyl)ethyl]-1-piperazinyl}methanone]: 10%.
Next, `COc1cc(-c2ccccc2C)c(Cl)cc1C(=O)N1Cc2ccc(C(=O)N3CCN(CCN4CCOCC4)CC3)n2Cc2ccccc21` [Example 217, {10-[(6-Chloro-3-methoxy-2′-methyl[1,1′-biphenyl]-4-yl)carbonyl]-10,11-dihydro-5H -pyrrolo[2,1-c][1,4]benzodiazepin-3-yl}{4-[2-(4-morpholinyl)ethyl]-1-piperazinyl}methanone]: 21%.

The record behind these values is patent publication US7109193B2, “Tricyclic diazepines tocolytic oxytocin receptor antagonists” (Wyeth, priority 2001, dated 2006).
